Assay results from ChEMBL document CHEMBL4699591, “An efficient synthesis tetrazole and oxadiazole analogues of novel 2'-deoxy-C-nucleosides and their antitumor activity” (2020).

Tests used:
Assay type in all cases: functional
MDA-MB-231 [1] = assay: Cytotoxicity against human MDA-MB-231 cells assessed as inhibition of cell growth at 10 uM incubated for 72 hrs by MTT assay relative to control
PANC-1 = assay: Cytotoxicity against human PANC-1 cells assessed as inhibition of cell growth at 2 uM incubated for 72 hrs by MTT assay relative to control
HeLa = assay: Cytotoxicity against human HeLa cells assessed as inhibition of cell growth at 2 uM incubated for 72 hrs by MTT assay relative to control
MDA-MB-231 [2] = assay: Cytotoxicity against human MDA-MB-231 cells assessed as inhibition of cell growth at 2 uM incubated for 72 hrs by MTT assay relative to control
PC-3 = assay: Cytotoxicity against human PC-3 cells assessed as inhibition of cell growth at 2 uM incubated for 72 hrs by MTT assay relative to control
SK-OV-3 = assay: Cytotoxicity against human SK-OV-3 cells assessed as inhibition of cell growth at 2 uM incubated for 72 hrs by MTT assay relative to control

Compound	inhibition at 10 µM (MDA-MB-231 [1]) [%]	inhibition at 2 µM (PANC-1) [%]	inhibition at 2 µM (HeLa) [%]	inhibition at 2 µM (MDA-MB-231 [2]) [%]	inhibition at 2 µM (PC-3) [%]	inhibition at 2 µM (SK-OV-3) [%]
CC(C)c1nc([C@H]2C[C@H](O)[C@@H](CO)O2)no1	9	–	–	–	–	–
Cc1nnc([C@@H]2C[C@H](O)[C@@H](CO)O2)o1	9	–	–	–	–	–
COc1cccc2c1C(=O)c1c(O)c3c(c(O)c1C2=O)C[C@@](O)(C(=O)CO)C[C@@H]3O[C@H]1C[C@H](N)[C@H](O)[C@H](C)O1 [DOXORUBICIN]	–	> 90	> 90	> 90	> 90	> 90
